# According to PubChem BioAssay AID180 (DTP/NCI, 2004):
# System: BDF1 mice, Adenocarcinoma 755 s.c., tumor weight T/C
# Assay: NCI In Vivo Anticancer Drug Screen. Data for tumor model Adenocarcinoma 755 (subcutaneous) in B6D2F1 (BDF1) mice
# Conditions: endpoint: mean tumor weight, schedule: Q01DX011 (ip), vehicle: saline, higher = larger tumour
# How it was run: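 Compound activity was tested in mice carrying transplanted tumors. Survival or tumor size was measured, and each value is the treated-group measurement divided by that of the vehicle-treated control group (T/C).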
structure (smiles),measurement,setting,value
Cn1ncc2c([N+](C)(C)C)ncnc21,T/C,dose: 25.0 mg/kg/injection,82 % of control
same,T/C,dose: 75.0 mg/kg/injection,111 % of control
